Source: patent US20110177002A1, “CYLIC POLYAMINES FOR BINDING PHOSPHATIDYLSERINE” (BAYER SCHERING PHARMA AKTIENGESELLSCHAFT, priority 2008, published 2011)

Columns and labels:
[1] = Zn^2+ complexation; cited from earlier work
[2] = test system: adenocarcinoma (Prostata) R3327-ATI; assay: PET imaging in radiation tumor model; type: in vivo, Male Copenhagen rats; settings: day 6 and day 10 after 50 Gy radiation, i.v.
Text: The PET images were obtained using a radiation model. Male Copenhagen rats with approx. 180 g body weight were transplanted with the hormone independent adenocarcinoma (Prostata) R3327-ATI on the left and right upper leg. The left tumor, as it reached a size of 3.5 cm^3 was radiated by linear particle accelerator with a single dosis of 50 Gy, whereas the right tumor served as control.
One day prior to the radiation as well as 6 and 10 d after radiation, the 18F-compound 19 (15-25 MBq in ca. 200 μL PBS) was injected i.v. and PET-aquisition with 1 h dynamic PET measurements were performed.

apoptotic liver = assay: Biodistribution after induction of hepatic apoptosis with Cycloheximid; type: in vivo, male Balb/c mice; settings: i.v., 3.5 h after induction of hepatic apoptosis
Experimental: The biodistribution was performed in male Balb/c mice (6-8 weeks, body weight approx. 20 g). Hepatic apoptosis were induced by intraperitoneal injection of Cycloheximid ([…] in 500 μL PBS) (J. F. Tait, C. Smith, Z. Levashova, B. Patel, F. G. Blankenberg, J. Vanderheyden, J. Nucl. Med. 2006, 47, 1546). 1.5 h and 3.5 h after induction of hepatic apoptosis the 18F-labeled compound was injected i.v. (1-2 MBq in 100 μL PBS). The organ distribution was done after 30 min, 1 h, 2 h and 3 h. The amount of 18F-compound was determined by gamma counter.

[3] = test system: Jurkat cells induced with staurosporin; assay: Confocal microscopy on apoptosis induced Jurkat cells; type: cell-based; settings: 5 μM compound, 15 min at RT
Experimental: In order to verify the FACS data with visual data confocal microscopy was performed. Confocal microscopy was also performed on Jurkat cells and apoptosis was induced by incubating 10^6 cells/ml in 1 μM staurosporin for 4 h (Stepczynska A et al, Staurosporine and conventional anticancer drugs induce overlapping, yet distinct pathways of apoptosis and caspase activation Oncogene (2001) 20, 1193). The experiments were also carried out in TES-buffer. For compound binding 10^6 cells (either induced with staurosporin or non-induced) were incubated for 15 min at RT in 100 μl cold TES buffer with a final concentration of 5 μM compound, then the cells were fixed onto polylysine coated slides and shortly incubated with propidium iodine (PI).

[4] = test system: staurosporine treated Jurkat cells; assay: FACS flow cytometry, apoptosis detection on staurosporine treated Jurkat cells with propidium iodide discrimination; type: cell-based; settings: for labeling pattern in direct comparison with Annexin-V: apoptosis induced Jurkat cells, co-incubation, FIG. 10
Text: Flow cytometry is a technology for counting and examining cells which pass in a flow of single cells through a laser beam. The laser light scatter provides information about cell features. The forward scatter (FSC) depends basically on the size of the cell, whereas the side scatter (SSC) is used to measure the granularity of the cell. Furthermore, if the cells carry fluorescence dyes, the respective fluorescence signal can be detected.
Flow cytometry is a widely applied technique in cell biology. Especially in the research of cell death mechanisms it is a standard procedure to count and differentiate between apoptotic, necrotic and healthy cells. For the detection of apoptosis the protein Annexin V is applied which is usually attached to a green fluorescence dye. Because Annexin V can also bind to necrotic cells, the red fluorescent nuclear stain propidium iodide is simultaneously applied as a necrosis marker.
The resulting fluorescence diagrams that are obtained from a flow cytometry procedure with Annexin V and propidium iodide are shown below. The detection channel for green fluorescence is termed FL-I (FIG. 4), the one for red fluorescence FL-III (FIG. 4). The plot of cell number (counts) versus FL-I intensity is called histogram. The fluorescence signal of the sample is always accompanied by a second signal at low intensities (left in the histogram) which is background fluorescence. By plotting the red fluorescence versus the green fluorescence (FL-I/FL-III-plot) a diagram is obtained in which the cells can be divided into red, green and red+green fluorescent cells. After gating the signals into four quadrant regions (Q1-Q4) (FIG. 4), the percentages of the differently stained cells is indicated in the diagram.
FACS measurements were performed with a DAKO Galaxy Flow Cytometry System using the following experimental setup: Jurkat-cells were grown to a density of about 1*10^6 cells/ml. Apoptosis was induced by adding 1 μmol/l staurosporine (Stepczynska A et al, Staurosporine and conventional anticancer drugs induce overlapping, yet distinct pathways of apoptosis and caspase activation, Oncogene (2001) 20, 1193). After incubation for 4 h at 37° C., the cells were washed with cold PBS-buffer (140 mmol/l NaCl, 10 mmol/l KCl, 6.4 mmol/l Na2HPO4, 2 mmol/l KH2PO4) and resuspended in cold TES-buffer (5 mmol/l TES, 145 mmol/l NaCl). 10^6 cells in 100 μl buffer with 1 μl of a 0.5 mmol/l aqueous solution of complex 1 were incubated for 15 minutes at 37° C. Subsequently, cells were washed twice with 500 μl TES-buffer and the cells were resuspended in 400 μl TES-buffer. 100 μl of the probe were diluted with 900 μl of buffer and measured immediately. To discriminate against necroses, 10 μl propidiumiodide solution (250 μg/ml) were added directly before the measurement.

[5] = test system: cells which expose phosphatidylserine; settings: cited from earlier work

Compound: c1ccc(CNCc2ccccn2)nc1 [DPA, 2,2-dipicolylamine]
- stability constant [1]: 10^5 (mol/l)^−1

Compound: [18F]CCOc1cc(CN2CCNCCNCCNCC2)cc(CN2CCNCCNCCNCC2)c1 [compound 19]
- accumulation in irradiated tumor in comparison to the control tumor (PET) [2]: increase in accumulation
- time the liver signal was stable (apoptotic liver): more than 3 h
- accumulation in the apoptotic liver (apoptotic liver; as early as 30 min after injection): accumulation in the apoptotic liver

Compound: CCN(CC)c1ccc2c(-c3ccc(NC(=S)NCCOCCOCCOc4cc(CN5CCNCCNCCNCC5)cc(CN5CCNCCNCCNCC5)c4)cc3C(=O)O)c3ccc(=[N+](CC)CC)cc-3oc2c1 [compound AB]
- uptake / labeling of cells in confocal microscopy [3]: labeling of apoptotic and necrotic cells
- labeling pattern in direct comparison with Annexin-V [4]: labeling apoptotic cells in Q2 and necrotic cells in Q4

Compound: O=C(NCCOCCOCCOc1cc(COc2cc(CN3CCNCCNCCNCC3)cc(CN3CCNCCNCCNCC3)c2)cc(COc2cc(CN3CCNCCNCCNCC3)cc(CN3CCNCCNCCNCC3)c2)c1)c1ccc(-c2c3ccc(=O)cc-3oc3cc(O)ccc23)c(C(=O)O)c1 [compound we]
- median fluorescence intensity ([4]; induced apoptotic Jurkat cells, FIG. 11): 130
- effect of Zn^2+ complexation on binding ([4]; with versus without Zn^2+): same effect

Compound: Anx V: phosphatidylserine-binding protein, fluorescent dye labeled, standard apoptosis sensor
- Kd [5]: < 100 pM
- uptake / labeling of cells in confocal microscopy [3]: green membrane staining
- labeling pattern in direct comparison with Annexin-V [4]: labels apoptotic cells in Q1 and Q2
- % apoptosis (green) ([4]; staurosporine treated Jurkat cells, green fluorescence only): 22%
- % necrosis (PI) (red) ([4]; staurosporine treated Jurkat cells, propidium iodide red only): 18%
- % necrosis/ late apoptosis (red + green) ([4]; staurosporine treated Jurkat cells, red + green): 25%
